Two compounds from patent US9439888B2, “Tetrazolones as a carboxylic acid bioisosteres” (RIGEL PHARMACEUTICALS, INC., priority 2015, dated 2016) can be followed below.

Experiment [1] addresses T1, retinoid X receptor alpha (RXRa) (Homo sapiens, UniProt P19793).
T1 sequence (P19793 1-462): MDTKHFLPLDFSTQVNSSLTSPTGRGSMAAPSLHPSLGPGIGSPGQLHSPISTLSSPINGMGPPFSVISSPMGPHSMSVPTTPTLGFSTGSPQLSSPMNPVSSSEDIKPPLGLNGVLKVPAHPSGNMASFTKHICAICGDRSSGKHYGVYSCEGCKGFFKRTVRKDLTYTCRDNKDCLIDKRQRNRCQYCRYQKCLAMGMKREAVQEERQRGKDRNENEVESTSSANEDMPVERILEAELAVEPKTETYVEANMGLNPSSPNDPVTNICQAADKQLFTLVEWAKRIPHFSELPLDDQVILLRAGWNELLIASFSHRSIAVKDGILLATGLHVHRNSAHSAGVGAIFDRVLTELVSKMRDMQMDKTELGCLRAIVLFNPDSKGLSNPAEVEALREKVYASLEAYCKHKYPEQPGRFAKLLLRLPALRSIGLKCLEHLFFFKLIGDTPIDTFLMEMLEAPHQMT
In words: RXRα agonist activity assay.

Experiment [2] concerns the target T2, angiotensin II receptor type 1 (AT1) (Homo sapiens, UniProt P30556).
T2 construct: expressed in transfected cells; host or cells: HEK-293
T2 sequence (P30556 1-359): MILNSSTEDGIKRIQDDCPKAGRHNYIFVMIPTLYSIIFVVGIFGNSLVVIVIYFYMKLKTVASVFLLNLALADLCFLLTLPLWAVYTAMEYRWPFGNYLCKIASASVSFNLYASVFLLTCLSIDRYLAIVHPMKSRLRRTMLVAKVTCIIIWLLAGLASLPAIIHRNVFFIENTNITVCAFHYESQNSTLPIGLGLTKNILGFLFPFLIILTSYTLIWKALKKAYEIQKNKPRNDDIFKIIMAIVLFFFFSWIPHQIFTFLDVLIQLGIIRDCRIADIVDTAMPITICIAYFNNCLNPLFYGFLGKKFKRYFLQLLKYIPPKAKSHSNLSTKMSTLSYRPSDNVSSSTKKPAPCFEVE
In words: AT1 antagonist activity: inhibition of response to 3 nM angiotensin-II, intracellular Ca2+ by fluorimetry. The class given is cell-based. The settings on record: HEK-293 cells expressing hAT1.

Structures are written as SMILES.

Usually EC50 stands for the concentration needed to bring the measured effect to its halfway point. For the compound `C=C(c1ccc(-n2nn[nH]c2=O)cc1)c1cc2c(cc1C)C(C)(C)CCC2(C)C` [6u, 1-(4-(1-(3,5,5,8,8-pentamethyl-5,6,7,8-tetrahydronaphthalen-2-yl)vinyl)phenyl)-1,4-dihydro-5h-tetrazol-5-one], a half-maximal response in experiment [1] (EC50) required 64 nM. Usually IC50 stands for the concentration needed to halve the response being measured. High values mean lower potency, low ones higher potency. A word on the Kb: it is the equilibrium dissociation constant of an antagonist, usually derived from a functional assay. Lower therefore signals higher antagonist affinity. In experiment [2], `CCCc1nc2c(C)cc(-c3nc4ccccc4n3C)cc2n1Cc1ccc(-c2ccccc2-n2nn[nH]c2=O)cc1` [6t] returned an IC50 of 1.7 nM and a Kb of 0.14 nM.
